# According to patent US20260285850A1, “SUBSTITUTED OXAZOLIDINONES AND IMIDAZOLINONES AS HERBICIDES” (FMC CORPORATION, priority 2023, published 2026):
# How the values were obtained:
# Assay type in all cases: in vivo
# [1] = tested on: barnyardgrass (Echinochloa crus-galli); experiment: Test A preemergence soil spray, visual injury rating 0-100; conditions: 10 days
# In short: (§1)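 Compound in a non-phytotoxic, surfactant-containing solvent is applied either as a directed soil spray before seedlings emerge or onto emerged plants 2-10 cm tall; pots hold a loam-sand blend. Plants grow 10 days under greenhouse conditions and are rated by eye against untreated controls (0 no effect, 100 complete control).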
# [2] = tested on: blackgrass (Alopecurus myosuroides); experiment: as above; conditions: 10 days
# In short: as §1
# [3] = tested on: corn (Zea mays); experiment: as above; conditions: 10 days
# In short: as §1
# [4] = tested on: green foxtail (Setaria viridis); experiment: as above; conditions: 10 days
# In short: as §1
# [5] = tested on: kochia (Bassia scoparia); experiment: as above; conditions: 10 days
# In short: as §1
# [6] = tested on: oat, wild (wild oat, Avena fatua); experiment: as above; conditions: 10 days
# In short: as §1
# [7] = tested on: palmer (palmer amaranth, palmer pigweed, Amaranthus palmeri); experiment: as above; conditions: 10 days
# In short: as §1
# [8] = tested on: ragweed (common ragweed, Ambrosia artemisiifolia); experiment: as above; conditions: 10 days
# In short: as §1
# [9] = tested on: ryegrass, Italian (italian ryegrass, Lolium multiflorum); experiment: as above; conditions: 10 days
# In short: as §1
# [10] = tested on: soybean (Glycine max); experiment: as above; conditions: 10 days
# In short: as §1
# [11] = tested on: wheat (Triticum aestivum); experiment: as above; conditions: 10 days
# In short: as §1
# [12] = tested on: barnyardgrass (Echinochloa crus-galli); experiment: Test A postemergence application, visual injury rating 0-100
# In short: as §1
# [13] = tested on: blackgrass (Alopecurus myosuroides); experiment: as above
# In short: as §1
# [14] = tested on: corn (Zea mays); experiment: as above
# In short: as §1
# [15] = tested on: galium (catchweed bedstraw, Galium aparine); experiment: as above
# In short: as §1
# [16] = tested on: green foxtail (Setaria viridis); experiment: as above
# In short: as §1
# [17] = tested on: horseweed (Erigeron canadensis); experiment: as above
# In short: as §1
# [18] = tested on: kochia (Bassia scoparia); experiment: as above
# In short: as §1
# [19] = tested on: oat, wild (wild oat, Avena fatua); experiment: as above
# In short: as §1
# [20] = tested on: palmer (palmer amaranth, palmer pigweed, Amaranthus palmeri); experiment: as above
# In short: as §1
# [21] = tested on: ragweed (common ragweed, Ambrosia artemisiifolia); experiment: as above
# In short: as §1
# [22] = tested on: ryegrass, Italian (italian ryegrass, Lolium multiflorum); experiment: as above
# In short: as §1
# [23] = tested on: soybean (Glycine max); experiment: as above
# In short: as §1
# [24] = tested on: wheat (Triticum aestivum); experiment: as above
# In short: as §1
# [25] = tested on: barnyardgrass (Echinochloa crusgalli); experiment: Test B flooded paddy test, visual plant response rating 0-100; conditions: 250 g ai/ha, Flood, applied to paddy water, evaluated after 13 days
# In short: (§2)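 Paddy-water application: test compounds went directly into water flooded 3 cm above the soil surface, with plants at 2 leaves. After a 13-day greenhouse period, responses were judged by eye relative to controls; a dash marks an untested entry.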
# [26] = tested on: ducksalad (Heteranthera limosa); experiment: as above; conditions: 250 g ai/ha, Flood, applied to paddy water, evaluated after 13 days
# In short: as §2
# [27] = tested on: rice (Oryza sativa); experiment: as above; conditions: 250 g ai/ha, Flood, applied to paddy water, evaluated after 13 days
# In short: as §2
# [28] = tested on: sedge, umbrella (small-flower umbrella sedge, Cyperus difformis); experiment: as above; conditions: 250 g ai/ha, Flood, applied to paddy water, evaluated after 13 days
# In short: as §2
# [29] = 62 g ai/ha, 0 = no effect, 100 = complete control
# [30] = 62 g ai/ha, postemergence, 10 days, 0 = no effect, 100 = complete control
# [31] = Postemergence, 16 g ai/ha, greenhouse 10 days, 0 no effect, 100 complete control
smiles,measurement,setting,value
"COC(=O)C1CC(NC(=O)C2(C)CN(c3cc(F)cc(F)c3)C(=O)O2)C1 (stereo not shown) [Compound 118, methyl 3-[[3-(3,5-difluorophenyl)-5-methyl-2-oxo-oxazolidine-5-carbonyl]amino]cyclobutanecarboxylate]",Barnyardgrass plant response rating,"[1]; 16 g ai/ha, 0 to 100 scale",10
same,Barnyardgrass plant response rating (0-100),[1]; [29],80
same,Blackgrass plant response rating,"[2]; 16 g ai/ha, 0 to 100 scale",30
same,Blackgrass plant response rating (0-100),[2]; [29],90
same,Corn plant response rating,"[3]; 16 g ai/ha, 0 to 100 scale",30
same,Corn plant response rating (0-100),[3]; [29],90
same,"Foxtail, Green plant response rating","[4]; 16 g ai/ha, 0 to 100 scale",60
same,"Foxtail, Green plant response rating (0-100)",[4]; [29],90
same,Kochia plant response rating,"[5]; 16 g ai/ha, 0 to 100 scale",0
same,Kochia plant response rating (0-100),[5]; [29],60
same,"Oat, Wild plant response rating","[6]; 16 g ai/ha, 0 to 100 scale",90
same,"Oat, Wild plant response rating (0-100)",[6]; [29],90
same,"Pigweed, Palmer plant response rating","[7]; 16 g ai/ha, 0 to 100 scale",20
same,"Pigweed, Palmer plant response rating (0-100)",[7]; [29],50
same,Ragweed plant response rating,"[8]; 16 g ai/ha, 0 to 100 scale",0
same,Ragweed plant response rating (0-100),[8]; [29],0
same,"Ryegrass, Italian plant response rating","[9]; 16 g ai/ha, 0 to 100 scale",20
same,"Ryegrass, Italian plant response rating (0-100)",[9]; [29],80
same,Soybean plant response rating,"[10]; 16 g ai/ha, 0 to 100 scale",0
same,Soybean plant response rating (0-100),[10]; [29],30
same,Wheat plant response rating,"[11]; 16 g ai/ha, 0 to 100 scale",20
same,Wheat plant response rating (0-100),[11]; [29],80
same,Barnyardgrass plant response rating (0-100),[12]; [30],100
same,Barnyardgrass plant response rating (0 to 100 scale),[12]; [31],50
same,Blackgrass plant response rating (0-100),[13]; [30],100
same,Blackgrass plant response rating (0 to 100 scale),[13]; [31],90
same,Corn plant response rating (0-100),[14]; [30],100
same,Corn plant response rating (0 to 100 scale),[14]; [31],90
same,Galium plant response rating (0-100),[15]; [30],60
same,Galium plant response rating (0 to 100 scale),[15]; [31],50
same,"Foxtail, Green plant response rating (0-100)",[16]; [30],90
same,"Foxtail, Green plant response rating (0 to 100 scale)",[16]; [31],90
same,Horseweed plant response rating (0-100),[17]; [30],0
same,Horseweed plant response rating (0 to 100 scale),[17]; [31],0
same,Kochia plant response rating (0-100),[18]; [30],70
same,Kochia plant response rating (0 to 100 scale),[18]; [31],30
same,"Oat, Wild plant response rating (0-100)",[19]; [30],90
same,"Oat, Wild plant response rating (0 to 100 scale)",[19]; [31],30
same,"Pigweed, Palmer plant response rating (0-100)",[20]; [30],70
same,"Pigweed, Palmer plant response rating (0 to 100 scale)",[20]; [31],20
same,Ragweed plant response rating (0-100),[21]; [30],50
same,Ragweed plant response rating (0 to 100 scale),[21]; [31],30
same,"Ryegrass, Italian plant response rating (0-100)",[22]; [30],80
same,"Ryegrass, Italian plant response rating (0 to 100 scale)",[22]; [31],20
same,Soybean plant response rating (0-100),[23]; [30],60
same,Soybean plant response rating (0 to 100 scale),[23]; [31],60
same,Wheat plant response rating (0-100),[24]; [30],90
same,Wheat plant response rating (0 to 100 scale),[24]; [31],80
same,"Plant response rating, Barnyardgrass (0 to 100 scale, 0 is no effect and 100 is complete control)",[25],0
same,"Plant response rating, Ducksalad (0 to 100 scale, 0 is no effect and 100 is complete control)",[26],0
same,"Plant response rating, Rice (0 to 100 scale, 0 is no effect and 100 is complete control)",[27],0
same,"Plant response rating, Sedge, Umbrella (0 to 100 scale, 0 is no effect and 100 is complete control)",[28],0
